Where “and” joins values, the source holds several entries; their conditions need not be identical. Equal values may be shown once. Toxic doses and inconclusive results are not listed. How the source made its calls: active means survival T/C of 150% or more; inactive means T/C below 125% in these data.
System: P388 leukemia ip, CD2F1 mice, survival T/C
Assay: NCI In Vivo Anticancer Drug Screen. Data for tumor model P388 Leukemia (intraperitoneal) in CD2F1 (CDF1) mice
Conditions: endpoint: median survival time, higher = longer survival
How it was run: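 Mice carrying the transplanted tumor received test compound or vehicle. Survival was recorded in each group, and the value is the treated-group measurement divided by that of the vehicle-treated control group.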

[1] = dose: 50.0 mg/kg/injection, schedule: Q01DX005 (ip), vehicle: Klucel (hydroxypropylcellulose) (HPC)
[2] = dose: 60.0 mg/kg/injection, schedule: Q01DX005 (ip), vehicle: Klucel (hydroxypropylcellulose) (HPC)
[3] = dose: 120.0 mg/kg/injection, schedule: Q01DX005 (ip), vehicle: Klucel (hydroxypropylcellulose) (HPC)
[4] = dose: 240.0 mg/kg/injection, schedule: Q01DX005 (ip), vehicle: Klucel (hydroxypropylcellulose) (HPC)

Measured: T/C

CN([NH-])C(=S)[S-].CN([NH-])C(=S)[S-].[Ni]
inactive: dose: 50.0 mg/kg/injection, schedule: Q04DX003 (ip), vehicle: Klucel (hydroxypropylcellulose) (HPC) 100 % of control | dose: 50.0 mg/kg/injection, schedule: Q04DX003 (ip), vehicle: saline with Tween-80 100 % of control | dose: 100.0 mg/kg/injection, schedule: Q01DX001 (ip), vehicle: saline with Tween-80 120 % of control | dose: 100.0 mg/kg/injection, schedule: Q04DX003 (ip), vehicle: saline with Tween-80 100 % of control | dose: 200.0 mg/kg/injection, schedule: Q01DX001 (ip), vehicle: saline with Tween-80 101 % of control | dose: 200.0 mg/kg/injection, schedule: Q04DX003 (ip), vehicle: Klucel (hydroxypropylcellulose) (HPC) 117 % of control | dose: 400.0 mg/kg/injection, schedule: Q01DX001 (ip), vehicle: saline with Tween-80 123 % of control

O=C1CCC(NCCc2ccccc2)C(=O)O1 (stereo not given)
inactive: dose: 50.0 mg/kg/injection, schedule: Q01DX009 (ip), vehicle: Klucel (hydroxypropylcellulose) (HPC) 98 % of control | dose: 100.0 mg/kg/injection, schedule: Q01DX009 (ip), vehicle: Klucel (hydroxypropylcellulose) (HPC) 92 % of control | dose: 200.0 mg/kg/injection, schedule: Q01DX009 (ip), vehicle: Klucel (hydroxypropylcellulose) (HPC) 103 % of control

CCNc1ccc(/C=C2\C=Cc3ccccc32)cc1
inactive: dose: 25.0 mg/kg/injection, schedule: Q01DX009 (ip), vehicle: Klucel (hydroxypropylcellulose) (HPC) 110 % of control

CCC(c1ccc(OCC(=O)N(CCCl)CCCl)cc1)C(CC)c1ccc(OCC(=O)N(CCCl)CCCl)cc1 (stereo not given)
inactive: dose: 100.0 mg/kg/injection, schedule: Q04DX002 (ip), vehicle: suspension in saline 98 % of control | dose: 200.0 mg/kg/injection, schedule: Q04DX002 (ip), vehicle: suspension in saline 97 % of control | dose: 400.0 mg/kg/injection, schedule: Q04DX002 (ip), vehicle: suspension in saline 103 % of control

O=C(O)C1CSCN1 (stereo not given)
inactive: dose: 6.25 mg/kg/injection, schedule: Q01DX009 (ip), vehicle: water 90 % of control and 96 % of control | dose: 12.5 mg/kg/injection, schedule: Q01DX009 (ip), vehicle: water 99 % of control and 96 % of control | dose: 25.0 mg/kg/injection, schedule: Q01DX009 (ip), vehicle: water 98 % of control and 99 % of control | dose: 50.0 mg/kg/injection, schedule: Q01DX009 (ip), vehicle: water 98 % of control and 95 % of control | dose: 100.0 mg/kg/injection, schedule: Q01DX009 (ip), vehicle: water 100 % of control | dose: 200.0 mg/kg/injection, schedule: Q01DX009 (ip), vehicle: water 96 % of control

CC[N+](CC)=c1cc2oc3cc(N(C)C)ccc3nc-2cc1C
inactive: dose: 6.25 mg/kg/injection, schedule: Q01DX005 (ip), vehicle: saline with Tween-80 99 % of control and 107 % of control | dose: 6.25 mg/kg/injection, schedule: Q01DX005 (ip), vehicle: saline 107 % of control | dose: 12.5 mg/kg/injection, schedule: Q01DX005 (ip), vehicle: saline with Tween-80 106 % of control and 110 % of control | dose: 12.5 mg/kg/injection, schedule: Q01DX005 (ip), vehicle: saline 112 % of control | dose: 25.0 mg/kg/injection, schedule: Q01DX005 (ip), vehicle: saline with Tween-80 109 % of control and 115 % of control | dose: 25.0 mg/kg/injection, schedule: Q01DX005 (ip), vehicle: saline 122 % of control | dose: 50.0 mg/kg/injection, schedule: Q01DX005 (ip), vehicle: saline with Tween-80 109 % of control and 110 % of control and 112 % of control

Cc1ccnc(NC(=O)Nc2cc(F)ccc2F)c1
inactive: dose: 30.0 mg/kg/injection, schedule: Q01DX005 (ip), vehicle: saline with Tween-80 87 % of control | dose: 60.0 mg/kg/injection, schedule: Q01DX005 (ip), vehicle: saline with Tween-80 87 % of control and 89 % of control | dose: 120.0 mg/kg/injection, schedule: Q01DX005 (ip), vehicle: saline with Tween-80 101 % of control | dose: 240.0 mg/kg/injection, schedule: Q01DX005 (ip), vehicle: saline with Tween-80 87 % of control

[O-][n+]1c2ccccc2cc2c1c1ccccc1n2O
inactive: dose: 12.5 mg/kg/injection, schedule: Q01DX005 (ip), vehicle: Klucel (hydroxypropylcellulose) (HPC) 113 % of control | dose: 25.0 mg/kg/injection, schedule: Q01DX005 (ip), vehicle: Klucel (hydroxypropylcellulose) (HPC) 107 % of control | [1] 106 % of control and 93 % of control

CN(C)P1(N(C)C)=NP(N(C)C)(N(C)C)=NP(N(C)C)(N(C)C)=N1
inactive: dose: 12.5 mg/kg/injection, schedule: Q01DX009 (ip), vehicle: saline 99 % of control | dose: 25.0 mg/kg/injection, schedule: Q01DX009 (ip), vehicle: saline 89 % of control | dose: 25.0 mg/kg/injection, schedule: Q04DX003 (ip), vehicle: saline 99 % of control | dose: 50.0 mg/kg/injection, schedule: Q01DX009 (ip), vehicle: saline 90 % of control | dose: 50.0 mg/kg/injection, schedule: Q04DX003 (ip), vehicle: saline 100 % of control | dose: 100.0 mg/kg/injection, schedule: Q01DX009 (ip), vehicle: saline 96 % of control | dose: 100.0 mg/kg/injection, schedule: Q04DX003 (ip), vehicle: saline 100 % of control

COC(=O)c1cccc2c(Br)cc3ccccc3c12
inactive: dose: 150.0 mg/kg/injection, schedule: Q04DX003 (ip), vehicle: Klucel (hydroxypropylcellulose) (HPC) 95 % of control | dose: 300.0 mg/kg/injection, schedule: Q04DX003 (ip), vehicle: Klucel (hydroxypropylcellulose) (HPC) 91 % of control

Cc1cc2ccccc2nc1-c1ccncc1
inactive: dose: 25.0 mg/kg/injection, schedule: Q04DX002 (ip), vehicle: Klucel (hydroxypropylcellulose) (HPC) 96 % of control | dose: 50.0 mg/kg/injection, schedule: Q04DX002 (ip), vehicle: Klucel (hydroxypropylcellulose) (HPC) 96 % of control | dose: 100.0 mg/kg/injection, schedule: Q04DX002 (ip), vehicle: Klucel (hydroxypropylcellulose) (HPC) 101 % of control | dose: 200.0 mg/kg/injection, schedule: Q04DX002 (ip), vehicle: Klucel (hydroxypropylcellulose) (HPC) 103 % of control

[Cl][Sn]1([Cl])[CH2]CC[CH2][Sn]([Cl])([Cl])[CH2]CC[CH2]1
inactive: dose: 25.0 mg/kg/injection, schedule: Q01DX001 (ip), vehicle: saline 107 % of control | dose: 50.0 mg/kg/injection, schedule: Q01DX001 (ip), vehicle: saline 107 % of control | dose: 100.0 mg/kg/injection, schedule: Q01DX001 (ip), vehicle: saline 120 % of control | dose: 100.0 mg/kg/injection, schedule: Q04DX002 (ip), vehicle: saline 109 % of control

CCOc1nc(N)nc(C)c1N=Nc1ccccc1OC
inactive: [2] 103 % of control | [3] 100 % of control | [4] 100 % of control

CCCNCC(O)COc1ccc2c3c(c(=O)oc2c1)CCC3 (stereo not given)
inactive: [2] 96 % of control | [3] 96 % of control

COc1cc(C/C(=C\c2ccc(OC)c(OCc3ccccc3)c2)[N+](=O)[O-])ccc1OCc1ccccc1
inactive: dose: 9.38 mg/kg/injection, schedule: Q04DX003 (ip), vehicle: Klucel (hydroxypropylcellulose) (HPC) 100 % of control | dose: 18.75 mg/kg/injection, schedule: Q04DX003 (ip), vehicle: Klucel (hydroxypropylcellulose) (HPC) 100 % of control | dose: 37.5 mg/kg/injection, schedule: Q04DX003 (ip), vehicle: Klucel (hydroxypropylcellulose) (HPC) 100 % of control

CCCCCCCC(=O)Nc1nnc(SCCCCCCCCCCCCSc2nnc(NC(=O)CCCCCCC)s2)s1
inactive: [1] 90 % of control | dose: 100.0 mg/kg/injection, schedule: Q01DX005 (ip), vehicle: Klucel (hydroxypropylcellulose) (HPC) 89 % of control | dose: 200.0 mg/kg/injection, schedule: Q01DX005 (ip), vehicle: Klucel (hydroxypropylcellulose) (HPC) 86 % of control

O=C1C(Cc2ccccc2)C(=O)N2c3ccccc3C=CC2N1c1ccccc1 (stereo not given)
inactive: [2] 98 % of control | [3] 97 % of control | [4] 89 % of control

Reference: PubChem BioAssay AID330 (DTP/NCI, 2004)
